Assay results taken from publication PMC12254823 (Acta Pharmaceutica Sinica. B, 2025).
Several values for one entry are separate records, joined by “and”; a condition that tells them apart may be missing. Equal values may be shown once. Read-outs that look alike come from different tables or passages of the source.

Assays:
in vitro = conditions: dog
A/WSN/33(H1N1) virus = assay: microbe, parasite or virus in culture; type: cell-based, influenza A virus; conditions: for inhibition at 100 µM: read-out: %-inhibition in viral yield reduction assay screening; for EC50: read-out: EC50 viral yield assay
[1] = test system: H5 PA-PB1 heterodimeric complex; type: biochemical, influenza A virus
[2] = test system: A/California/7/09(H1N1pdm); assay: microbe, parasite or virus in culture; type: cell-based; conditions: Influenza A virus, read-out: EC50 viral yield reduction assay
A/HK/1/68(H3N2) = assay: microbe, parasite or virus in culture; type: cell-based; conditions: Influenza A virus, H3N2, read-out: EC50 viral yield reduction assay
B/Florida/04/2006 = assay: microbe, parasite or virus in culture; type: cell-based; conditions: Influenza B virus, read-out: EC50 viral yield reduction assay
H1 polymerase = H1 polymerase (Influenza A virus, UniProt P15659); assay: cell-based; parameters: species or system A/WSN/33(H1N1); conditions: EC50 minigenome luciferase reporter assay
[3] = Influenza A virus, H1N1|WSN, MDCK

Compound | CC50 (in vitro) | inhibition at 100 µM (A/WSN/33(H1N1) virus; [3]) | also measured
Cc1ccccc1NCC(=O)Nc1ccccc1C(=O)NCc1cccc2cn[nH]c12 [Compound 1, N-[(1H-Indazol-7-yl)methyl]-2-[2-(o-tolylamino)acetamido]benzamide] | > 100 µM | 25% | 
Cc1ccc(NCC(=O)Nc2ccccc2C(=O)NCc2cccc3cn[nH]c23)cc1 [Compound 2, N-[(1H-Indazol-7-yl)methyl]-2-[2-(p-tolylamino)acetamido]benzamide] | > 100 µM | 10.2% | 
Cc1cccc(NCC(=O)Nc2ccccc2C(=O)NCc2cccc3cn[nH]c23)c1 [Compound 3, N-[(1H-Indazol-7-yl)methyl]-2-[2-(m-tolylamino)acetamido]benzamide] | > 100 µM | 18.6% | 
O=C(CNC1CCCCC1)Nc1ccccc1C(=O)NCc1cccc2cn[nH]c12 [Compound 4, N-[(1H-Indazol-7-yl)methyl]-2-[2-(cyclohexylamino)acetamido]benzamide] | > 100 µM | < 2% | 
O=C(CN1CCSCC1)Nc1ccccc1C(=O)NCc1cccc2cn[nH]c12 [Compound 5, N-[(1H-Indazol-7-yl)methyl]-2-[2-(thiomorpholin-4-yl)acetamido]benzamide] | > 100 µM | < 2% | 
O=C(CNc1ccc(Cl)cc1)Nc1ccccc1C(=O)NCc1cccc2cn[nH]c12 [Compound 6, N-[(1H-Indazol-7-yl)methyl]-2-{2-[(4-chlorophenyl)amino]acetamido}benzamide] | > 100 µM | < 2% | 
O=C(CNCc1ccccc1)Nc1ccccc1C(=O)NCc1cccc2cn[nH]c12 [Compound 7, N-[(1H-Indazol-7-yl)methyl]-2-[2-(benzylamino)acetamido]benzamide] | > 50 µM | < 2% | 
O=C(CN1CCOCC1)Nc1ccccc1C(=O)NCc1cccc2cn[nH]c12 [Compound 8, N-[(1H-Indazol-7-yl)methyl]-2-(2-morpholinoacetamido)benzamide] | > 100 µM | < 2% | 
O=C(/C=C/c1ccc(Br)cc1)NCc1cccc2cn[nH]c12 [Compound 9, (E)-N-[(1H-Indazol-7-yl)methyl]-3-(4-bromophenyl)acrylamide] | > 100 µM | < 2% | 
O=C(/C=C/c1ccc(Cl)cc1)NCc1cccc2cn[nH]c12 [Compound 10, (E)-N-[(1H-Indazol-7-yl)methyl]-3-(4-chlorophenyl)acrylamide] | > 100 µM | < 2% | 
O=C(/C=C/c1ccc(C(F)(F)F)cc1)NCc1cccc2cn[nH]c12 [Compound 11, (E)-N-[(1H-Indazol-7-yl)methyl]-3-[4-(trifluoromethyl)phenyl]acrylamide] | > 100 µM | < 2% | 
O=C(/C=C/c1ccc([N+](=O)[O-])cc1)NCc1cccc2cn[nH]c12 [Compound 12, (E)-N-[(1H-Indazol-7-yl)methyl]-3-(4-nitrophenyl)acrylamide] | > 100 µM | 37.3% | 
O=C(/C=C/c1ccc(F)cc1)NCc1cccc2cn[nH]c12 [Compound 13, (E)-N-[(1H-Indazol-7-yl)methyl]-3-(4-fluorophenyl)acrylamide] | > 100 µM | 30.5% | 
COc1ccc(/C=C/C(=O)NCc2cccc3cn[nH]c23)cc1 [Compound 14, (E)-N-[(1H-Indazol-7-yl)methyl]-3-(4-methoxyphenyl)acrylamide] | > 100 µM | 48.4% | 
O=C(/C=C/c1ccc(F)c(F)c1)NCc1cccc2cn[nH]c12 [Compound 15, (E)-N-[(1H-Indazol-7-yl)methyl]-3-(3,4-difluorophenyl)acrylamide] | > 100 µM | 44.1% | 
O=C(/C=C/c1ccncc1)NCc1cccc2cn[nH]c12 [Compound 16, (E)-N-[(1H-Indazol-7-yl)methyl]-3-(pyridin-4-yl)acrylamide] | > 100 µM | 48.2% | 
O=C(/C=C/c1ccco1)NCc1cccc2cn[nH]c12 [Compound 17, (E)-N-[(1H-Indazol-7-yl)methyl]-3-(furan-2-yl)acrylamide] | > 100 µM | 33.9% | 

Compound | CC50 (in vitro) | inhibition at 100 µM (A/WSN/33(H1N1) virus; [3]) | also measured
O=C(/C=C/c1cccs1)NCc1cccc2cn[nH]c12 [Compound 18, (E)-N-[(1H-Indazol-7-yl)methyl]-3-(thiophen-2-yl)acrylamide] | > 100 µM | < 2% | 
S=C(NCc1cccc2cn[nH]c12)Nc1ccccc1 [Compound 19, 1-[(1H-Indazol-7-yl)methyl]-3-phenylthiourea] | > 100 µM | 25% | 
Cc1ccc(NC(=S)NCc2cccc3cn[nH]c23)cc1 [Compound 20, 1-[(1H-Indazol-7-yl)methyl]-3-(p-tolyl)thiourea] | > 100 µM | < 2% | 
S=C(NCc1cccc2cn[nH]c12)Nc1cccc(Cl)c1 [Compound 21, 1-[(1H-Indazol-7-yl)methyl]-3-(3-chlorophenyl)thiourea] | > 25 µM | 37.5% | 
S=C(NCc1cccc2cn[nH]c12)Nc1ccc(Cl)cc1 [Compound 22, 1-[(1H-Indazol-7-yl)methyl]-3-(4-chlorophenyl)thiourea] | > 100 µM | 16.9% | 
S=C(NCc1cccc2cn[nH]c12)Nc1cccc(Cl)c1Cl [Compound 23, 1-[(1H-Indazol-7-yl)methyl]-3-(2,3-dichlorophenyl)thiourea] | > 100 µM | < 2% | 
COc1ccc(NC(=S)NCc2cccc3cn[nH]c23)cc1OC [Compound 24, 1-[(1H-Indazol-7-yl)methyl]-3-(3,4-dimethoxyphenyl)thiourea] | > 100 µM | > 90% | PA-PB1 complex co-immunoprecipitated compared to DMSO control [1]: 64.5% ± 6.2% and 64.5%; %-inhibition in viral yield reduction assay screening (A/WSN/33(H1N1) virus): 99.9%; EC50 [2]: 0.746 µM; EC50 (A/HK/1/68(H3N2)): 0.54 µM; EC50 (B/Florida/04/2006): 0.23 µM
S=C(NCc1cccc2cn[nH]c12)Nc1ccc(I)cc1 [Compound 25, 1-[(1H-Indazol-7-yl)methyl]-3-(4-iodophenyl)thiourea] | > 100 µM | 74.4% | 
FC(F)(F)Oc1ccc(NC(=S)NCc2cccc3cn[nH]c23)cc1 [Compound 26, 1-[(1H-Indazol-7-yl)methyl]-3-[4-(trifluoromethoxy)phenyl]thiourea] | > 100 µM | < 2% | 
FC(F)(F)c1ccc(NC(=S)NCc2cccc3cn[nH]c23)cc1 [Compound 27, 1-[(1H-Indazol-7-yl)methyl]-3-[4-(trifluoromethyl)phenyl]thiourea] | > 100 µM | > 90% | %-inhibition in viral yield reduction assay screening (A/WSN/33(H1N1) virus): 94.9%; selectivity index (CC50/EC50) (A/WSN/33(H1N1) virus): > 12.5; EC50 (A/WSN/33(H1N1) virus; [3]): 8.03 µM; EC50 (A/WSN/33(H1N1) virus): 8.03 µM
S=C(NCc1ccccc1)NCc1cccc2cn[nH]c12 [Compound 28, 1-[(1H-Indazol-7-yl)methyl]-3-benzylthiourea] | > 100 µM | < 2% | 
Fc1ccc(NC(=S)NCc2cccc3cn[nH]c23)cc1 [Compound 29, 1-[(1H-Indazol-7-yl)methyl]-3-(4-fluorophenyl)thiourea] | > 100 µM | < 2% | 
S=C(NCc1cccc2cn[nH]c12)Nc1ccc(Br)cc1 [Compound 30, 1-[(1H-Indazol-7-yl)methyl]-3-(4-bromophenyl)thiourea] | > 100 µM | < 2% | 
N#Cc1ccc(NC(=S)NCc2cccc3cn[nH]c23)cc1 [Compound 31, 1-[(1H-indazol-7-yl)methyl]-3-(4-cyanophenyl)thiourea] | > 25 µM | > 90% | %-inhibition in viral yield reduction assay screening (A/WSN/33(H1N1) virus): 99.9%; selectivity index (CC50/EC50) (A/WSN/33(H1N1) virus): > 1.73; EC50 (A/WSN/33(H1N1) virus; [3]): 14.6 µM; EC50 (A/WSN/33(H1N1) virus): 14.6 µM
COC(=O)OCOc1c2n(ccc1=O)N([C@@H]1c3ccccc3SCc3c1ccc(F)c3F)[C@@H]1COCCN1C2=O [baloxavir marboxil, reference compound] |  |  | EC50 (A/WSN/33(H1N1) virus): 0.00095 µM
NC(=O)c1nc(F)c[nH]c1=O [favipiravir, reference compound] |  |  | EC50 (H1 polymerase): 0.441 µM; EC50 (A/WSN/33(H1N1) virus): 1.57 µM
